Experiments:
A375 melanoma xenograft = A375 melanoma xenograft efficacy study; type: in vivo, Foxn-1 nu/nu athymic mice; settings: hydrochloride salt, 20 mg/kg intravenously QD, 15 days
Experimental: FIG. 6: Tumor volumes ±SEM of animals treated with Control (Carbonate vehicle) or compound 4015 (20 mg/kg, I.V., QD).
(§1) In vivo efficacy studies for compound 4015 hydrochloride salt were conducted using an A375 melanoma xenograft model in Foxn-1 nu/nu athymic mice. The human melanoma cell line A375 (sourced from American Type Culture Collection (ATCC), USA) was used for developing the flank xenograft model. Briefly, five million cells were injected subcutaneously in the right flank region of the animal. When the tumors reached 130-150 mm^3 the animals were randomized into two groups, each group with 8 animals in them, so that the average tumor volume of all the groups was same.
(§2) First group received vehicle (sodium bicarbonate buffer) intravenously once a day (QD). The second group received compound 4015 at 20 mg/kg, intravenously (QD) (Table 7). The volume of dosing to each animal was calculated and adjusted every day based on individual body weight measured prior to dosing.
(§3) Animals were treated from the day of randomization (Day 1) for 15 days. Body weight and tumor dimensions (length and diameter) were measured three times in a week including the termination day of the study. Throughout the study period, mice were monitored daily for clinical condition.

[1] = tested on: non-transfected and Tm5NM1 stably transfected MEFs; assay: MTT viability in non-transfected versus Tm5NM1 stably transfected MEFs; type: cell-based, mouse; settings: 48 hr, FIG. 1
Experimental: FIG. 1: Activity of selected compounds against Tm5NM1/2 transfected mouse embryonic fibroblasts versus non-transfected MEFs.
Compounds 4001, 4010, 4014, 4008 and 4015 were then screened against non-transfected and Tm5NM1 stably transfected MEFs. Briefly, MEFs were transfected with pEYFP-C1/Tm5NM1 constructs using the Amaxa nucleofector apparatus (program A-023) and MEF nucleofector kit 1 (Lonza) according to the manufacturer's instructions. Cell viability assays were also conducted to assess the anti-proliferative effects of the anti-tropomyosin compounds. Briefly, cells (1×10^3/well) were plated (96-well) and treated (48 hr) with anti-tropomyosin compounds and viability measured using 3-(4,5-dimethylthiazol-2-yl)-2, 5-diphenylterazolium bromide MTT. Cell viability was normalized to control (vehicle alone) and dose-response curves, and half maximal effective concentration (EC50) values were determined using Graph Pad Prism 5 (nonlinear regression sigmoidal dose-response variable slope).

[2] = Tolerance in the A375 xenograft study (body weight, clinical observations); type: in vivo; settings: hydrochloride salt, 20 mg/kg intravenously QD, 15 days
Experimental: FIG. 5: Average body weight measurement ±SEM (grams) of animals in Control (Carbonate vehicle) and compound 4015 (20 mg/kg, I.V., QD) treated animals.
as §1, §2, §3

[3] = tested on: Tm5NM1-containing actin filaments in SK-N-SH neuroblastoma cells; assay: Microfilament disruption assay, γ9d staining imaging and filament quantitation; type: cell-based; settings: 0-40 μM, 24 h, FIG. 3
Experimental: (§4) FIG. 3: Imaging and quantitation of actin filaments in SK—N—SH neuroblastoma cells treated with compound (A) 4093 and (B) 4113. Cells were stained with γ9d (sheep polycolonal, 1:100) followed by 488-conjugated secondary (1:1000) and DAPI to visualize the Tm5NM1 containing filament bundles and the nucleus, respectively. Shown in the top panel is a representative grey scale immunofluorescent image from control (vehicle alone), 5 μM and 10 μM treated cells. […] The coloured lines indicate the detected actin filaments. Also shown is the quantitation of cell number, filament number/cell and filament number/cell area ([…]). […]
(§5) The ability of compounds 4093 and 4113 to disrupt the total actin cytoskeleton (FIG. 2) and to specifically target Tm5NM1-containing actin filaments (FIG. 3) was assessed in vitro using the microfilament disruption assay.
(§6) Briefly, SK-N-SH neuroblastoma cells were seeded at 1800 cells/well in a 384 Perkin Elmer High Content Imaging “View” plate and left to plate down 24 h prior to treatment. […] Images were then exported and changes in the organization and numbers of actin filaments within the cell were quantitated using a linear feature detection algorithm developed by the CSIRO. […] It is these “ridge lines” that correspond to actin filament bundles and allow us to quantitate the number of filaments per cell.

[4] = tested on: ovarian cancer (SKOV3) cells; assay: Cell viability, CellTiter 96 AQueous, 72 hours; type: cell-based; settings: Homo sapiens, SK-OV-3
Experimental: (§7) The anti-proliferative activity of compound 4093 against ovarian cancer (SKOV3) and glioblastoma (U251) cells was also evaluated (Table 6). Briefly, cells were seeded at 2000 cells/well in a 96 well plate. 24 hrs post plating, each cell line was exposed to various concentrations of ATM-4093 (10, 5, 3,1, 0.7, 0.5, 0.3, 0.1 μM) for 72 hours. Cell viability was determined using CellTiter 96 AQueous (Promega) and absorbance measured at 490 nm on the SpectraMax M2 plate reader. Cell viability was normalized to control (vehicle alone) and dose-response curves, and half maximal effective concentration (EC50) values were determined using Graph Pad Prism 6 (nonlinear regression sigmoidal dose-response variable slope).

[5] = tested on: glioblastoma (U251) cells; assay: Cell viability, CellTiter 96 AQueous, 72 hours; type: cell-based; settings: Homo sapiens, U-251
Experimental: as §7

[6] = tested on: total actin cytoskeleton in SK-N-SH neuroblastoma cells; assay: Microfilament disruption assay, 488-Atto-Phallodin imaging and filament quantitation; type: cell-based; settings: 0-40 μM, 24 h, FIG. 2
Experimental: as §4, with “2:” for “3:”, “488-Atto-Phallodin” for “γ9d (sheep polycolonal, 1:100) followed by 488-conjugated secondary (1:1000)”, “actin” for “Tm5NM1 containing”
as §5, §6

| IC50 [4] | IC50 [5] | SMILES | Reduction in tumor growth compared to control (A375 melanoma xenograft) | Selectivity: toxicity against primary MEFs versus MEFs stably transfected with Tm5NM1/2 [1] | Tolerability (body weight and clinical observations) [2] | Disruption of Tm5NM1-containing actin filaments [3] | Disruption of the total actin cytoskeleton [6] |
| --- | --- | --- | --- | --- | --- | --- | --- |
| – | – | Cc1c(C)n(CCCN(C)C)c2ccc(CN3CCN(CCc4ccccc4)CC3)cc12 [Compound 4015, 3-(2,3-dimethyl-5-((4-phenethylpiperazin-1-yl)methyl)-1H-indol-1-yl)-N,N-dimethylpropan-1-amine] | 26% | less toxicity noted against primary mouse embryonic fibroblasts (MEFs) compared with MEFs stably transfected with Tm5NM1/2 | well tolerated | – | – |
| 0.6 µM | 0.5 µM | Cc1c(C)n(CCCN(C)C)c2ccc(Oc3ccc(C(=O)Nc4ccc(F)cc4)cc3)cc12 [Compound 4093, 4-((1-(3-(dimethylamino)propyl)-2,3-dimethyl-1H-indol-5-yl)oxy)-N-(4-fluorophenyl)benzamide] | – | – | – | disrupt both the total actin cytoskeleton and Tm5NM1-containing actin filaments in a dose-dependent manner | disrupt both the total actin cytoskeleton and Tm5NM1-containing actin filaments in a dose-dependent manner |

From patent publication US20170166555A1, “FUNCTIONALISED AND SUBSTITUTED INDOLES AS ANTI-CANCER AGENTS” (Novogen Limited, priority 2013, published 2017)
